Reference: US10179777B2, “3-(1H-benzimidazol-2-yl)-1H-pyridin-2-one derivatives” (MERCK PATENT GMBH, priority 2015, dated 2019)
Structures can show the parent of a compound that is named as a salt.

Columns and labels:
[1] = biological target: T1, ALK5 (TGFβR1; GST-modified TGFBR1 (200-503)) (Homo sapiens, UniProt P36897); experiment: ALK5 kinase inhibition assay (33P-ATP filter binding, Reaction Biology); format: biochemical; details: casein substrate, 200 μM ATP
T1 construct: Using GST-Modified TGFBR1 (200-503); GST
T1 sequence (P36897 200-503): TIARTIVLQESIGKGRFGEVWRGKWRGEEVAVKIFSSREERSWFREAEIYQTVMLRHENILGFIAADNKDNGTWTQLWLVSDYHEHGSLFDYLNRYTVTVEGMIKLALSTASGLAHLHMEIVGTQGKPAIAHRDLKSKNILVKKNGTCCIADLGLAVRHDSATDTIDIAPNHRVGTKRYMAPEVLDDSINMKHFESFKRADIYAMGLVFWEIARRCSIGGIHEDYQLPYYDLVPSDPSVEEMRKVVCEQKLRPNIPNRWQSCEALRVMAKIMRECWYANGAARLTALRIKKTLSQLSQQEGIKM
Protocol: (§1) The protein sequences of the kinases targeted and accompanying information are described in publically available data base http://www.uniprot.org/uniprot/for ALK1 www.uniprot.org/uniprot/P37023, for ALK2 www.uniprot.org/uniprot/Q04771 and for ALK5 www.uniprot.org/uniprot/P36897. IC50 determination of the novel inhibitors described was performed at Reaction Biology Corp., Malvern, Pa., USA, with assay conditions open to public at www.reactionbiology.com/webapps/site/KinaseDetail.aspx?page=Kinases&id=1, and www.reactionbiology.com/webapps/site/Kinase Assay Protocol.aspx. In addition, they were specified previously in Anastassiadis et al. Nat. Biotechnol. 29(11): 1039-1045. doi:10.1038/nbt.2017.
A3) ALK5 Kinase Inhibition Assay Was Performed Similar to Procedures A1 and A2 Using GST-Modified TGFBR1 (200-503) and 1 mg/ml Casein as Substrate at 200 μM ATP.

[2] = biological target: T2, ALK1 (GST-modified kinase domain ACVRL1 (139-503)) (Homo sapiens, UniProt P37023); experiment: ALK1 kinase inhibition assay (33P-ATP filter binding, Reaction Biology); format: biochemical; details: casein substrate, 100 μM ATP (Km ATP), 120 min ambient temperature
T2 construct: N-terminally GST-modified kinase domain ACVRL1 (139-503); GST (N)
T2 sequence (P37023 139-503): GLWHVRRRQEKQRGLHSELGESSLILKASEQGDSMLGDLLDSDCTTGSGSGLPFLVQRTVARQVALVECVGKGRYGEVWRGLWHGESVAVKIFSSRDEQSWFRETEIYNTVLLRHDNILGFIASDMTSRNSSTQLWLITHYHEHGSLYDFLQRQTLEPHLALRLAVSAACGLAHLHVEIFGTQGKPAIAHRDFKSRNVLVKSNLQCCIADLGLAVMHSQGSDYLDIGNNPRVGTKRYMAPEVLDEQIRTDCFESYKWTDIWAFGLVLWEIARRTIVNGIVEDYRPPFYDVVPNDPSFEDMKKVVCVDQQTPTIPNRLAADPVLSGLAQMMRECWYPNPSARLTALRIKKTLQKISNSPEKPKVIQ
Protocol: as §1
A1) ALK1 Kinase Inhibition Assay
(§2) was performed with N-terminally GST-modified kinase domain ACVRL1 (139-503) and 20 mg/ml Casein as substrate in reaction buffer of 20 mM HEPES pH 7.5, 10 mM MgCl2, 1 mM EGTA, 0.02% Brij, 0.02 mg/ml BSA, 0.1 mM Na3VO4, 2 mM DTT, 1% DMSO. […] Reactions were carried out at ambient temperature for 120 min, followed by spotting of the reactions onto P81 ion exchange filter paper (Whatman Inc., Picataway, N.J., USA). Unbound phosphate was removed by extensive washing of filters in 0.75% phosphoric acid. After subtraction of background derived from control reactions without enzyme activity, kinase activity data was expressed as the percent remaining kinase activity in test samples compared to vehicle (DMSO) reactions. IC50 values and curve fits were obtained using Prism (GraphPad Software).

[3] = biological target: T3, ALK2 (GST-modified kinase domain ACVR1(145-509)) (Homo sapiens, UniProt Q04771); experiment: ALK2 kinase inhibition assay (33P-ATP filter binding, Reaction Biology); format: biochemical; details: casein substrate, 20 μM ATP (Km ATP), 120 min ambient temperature
T3 construct: N-terminally GST-modified kinase domain ACVR1(145-509); GST (N)
T3 sequence (Q04771 145-509): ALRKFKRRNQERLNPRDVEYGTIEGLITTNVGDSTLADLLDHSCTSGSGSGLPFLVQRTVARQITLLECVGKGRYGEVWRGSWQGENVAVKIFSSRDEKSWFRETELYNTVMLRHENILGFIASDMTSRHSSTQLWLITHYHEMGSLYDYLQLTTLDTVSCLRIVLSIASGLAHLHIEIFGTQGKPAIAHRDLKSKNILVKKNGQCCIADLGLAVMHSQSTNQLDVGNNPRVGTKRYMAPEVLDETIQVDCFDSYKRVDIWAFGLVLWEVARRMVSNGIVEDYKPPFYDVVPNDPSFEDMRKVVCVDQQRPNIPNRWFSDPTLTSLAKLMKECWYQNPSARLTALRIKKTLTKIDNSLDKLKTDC
Protocol: as §1
A2) ALK2 Kinase Inhibition Assay
as §2, with “performed similar to procedure A1” for “performed”, “domain ACVR1(145-509)” for “domain ACVRL1 (139-503)”, “and 1” for “and 20”

[4] = test system: ALK1-mediated SMAD1/5 phosphorylation in HUVEC cells; experiment: Cell-based immunofluorescence assay for ALK1-mediated SMAD1/5 phosphorylation in HUVEC cells; details: Homo sapiens, 1.5 ng/ml BMP-9 with compound for 2 h, % nuclei with pSMAD1/5 signal, read-out: Smad 1/5 IC50
From the text: In vitro cell-based Immunofluorescence-Assay for identification of inhibitors of ALK1-mediated SMAD1/5 phosphorylation in HUVEC cells:
ALK1 is a type I cell-surface receptor for the TGF-β superfamily of ligands. In adults ALK1 is mainly expressed on activated endothelial cells, e.g. during wound healing or in tumor angiogenesis. BMP9 and BMP10 are high affinity ligands for ALK1.
BMP9 and BMP10 binding leads to the phosphorylation of so-called Smad1 at Ser463 and Ser465 in the carboxy-terminal motif SSXS, as well as Smad5 and Smad8 at their corresponding sites. These phosphorylated Smads dimerize with the coactivating Smad4 and translocate to the nucleus, where they stimulate transcription of target genes.
Primary endothelial cells (HUVEC: Human Umbilical Vein Endothelial Cells; supplier Promocell) are cultivated in the culture medium obtained from Promocell (with supplements corresponding to 5% FCS) for maximum 5 passages, seeded into black 384-well culture plates with clear bottom (3000 cells/well/30 μl), and incubated for 16-24 hours at 37° C., 5% CO2 and 90% rH.
The following day cells were serum-starved for 2-3 h in order to stop TGF-ß-mediated signalling derived from ligands present in FBS. 1.5 ng/ml BMP-9 was than added in parallel with test compounds for 2 h at 37° C., 5% CO2 in order to identify compounds which block functional activity of ALK1 leading to phosphorylation and nuclear translocation of SMAD1/5/8.
After fixation (15 min 4% Formaldehyd in PBS) and permeabilization (10 min 0.2% Triton X-100 in PBS) an indirect immunocytochemical staining is performed with a specific Phospho-Smad1/5 (Ser463/465) antibody (Cell Signaling #9516) and Alexa488-labelled secondary anti-rabbit-IgG-antibody. DNA staining with Propidium Iodide allowed parallel cell counting. Image acquisition and analysis was performed on an MDS ImageXpress Ultra confocal High Content Reader using the image analysis software MetaXpress. Final read-out were % nuclei with a pSMAD1/5 signal above a defined background.
The final DMSO concentration in the assay was 0.5%. DMSO-treated HUVEC cells served as neutral control (=0%) and cells treated with 10 μM of a reference inhibitor described in a patent served as inhibitor control (=−100%). Raw data were normalised to the neutral and inhibitory references. The assay was performed as dose response (10 compound dilutions, 1 nM-30 μM).

| IC50 [1] [nM] | IC50 [2] [nM] | IC50 [3] [nM] | Structure (SMILES) | IC50 [4] [nM] |
| --- | --- | --- | --- | --- |
| 1400 | 17 | 22 | O=c1[nH]cc(-c2cccc3[nH]ccc23)cc1-c1nc2cc(N3CCNCC3)ccc2[nH]1 [Compound A48, 5-(1H-Indol-4-yl)-3-(5-piperazin-1-yl-1H-benzimidazol-2-yl)-1H-pyridin-2-one] | 1000 |
| 2400 | 6 | 8 | O=c1[nH]cc(-c2ccc(CO)cc2)cc1-c1nc2cc(N3CCNCC3)ccc2[nH]1 [Compound A16, 5-(4-Hydroxymethyl-phenyl)-3-(5-piperazin-1-yl-1H-benzimidazol-2-yl)-1H-pyridin-2-one] | 590 |
| 6500 | 33 | 41 | O=c1[nH]cc(-c2ccc(F)c(CO)c2)cc1-c1nc2cc(N3CCCNCC3)ccc2[nH]1 [Compound A24, 3-(5-[1,4]Diazepan-1-yl-1H-benzimidazol-2-yl)-5-(4-fluoro-3-hydroxymethyl-phenyl)-1H-pyridin-2-one] |  |
|  |  |  | O=c1[nH]cc(-c2ccnc3[nH]ccc23)cc1-c1nc2cc(N3CC4CCC(C3)N4)ccc2[nH]1 [Compound A46, 3-[6-(3,8-Diaza-bicyclo[3.2.1]oct-3-yl)-1H-benzimidazol-2-yl]-5-(1H-pyrrolo-[2,3-b]pyridin-4-yl)-1H-pyridin-2-one] | 4400 |
|  |  |  | CN1C2CCC1CN(c1ccc3[nH]c(-c4cc(-c5ccnc6[nH]ccc56)c[nH]c4=O)nc3c1)C2 [Compound A53, 3-[6-(8-Methyl-3,8-diaza-bicyclo[3.2.1]oct-3-yl)-1H-benzimidazol-2-yl]-5-(1H-pyrrolo[2,3-b]pyridin-4-yl)-1H-pyridin-2-one] | 2800 |
| 2500 | 4 | 30 | CN1CCN(c2ccc3[nH]c(-c4cc(-c5cccc(CO)c5F)c[nH]c4=O)nc3c2)CC1 [Compound A37, 5-(2-Fluoro-3-hydroxymethyl-phenyl)-3-[5-(4-methyl-piperazin-1-yl)-1H-benzimidazol-2-yl]-1H-pyridin-2-one trifluoroacetate] |  |
|  |  |  | O=c1[nH]cc(-c2ccnc3ccccc23)cc1-c1nc2cc(N3CCNCC3)ccc2[nH]1 [Compound A14, 3-(6-Piperazin-1-yl-1H-benzimidazol-2-yl)-5-quinolin-4-yl-1H-pyridin-2-one] | 5700 |
|  |  |  | O=c1[nH]cc(-c2cc(CO)ccc2Cl)cc1-c1nc2cc(N3CCOCC3)ccc2[nH]1 [Compound A11, 5-(2-Chloro-5-hydroxymethyl-phenyl)-3-(5-morpholin-4-yl-1H-benzimidazol-2-yl)-1H-pyridin-2-one] | 6500 |
|  |  |  | Cc1[nH]c2ncccc2c1-c1c[nH]c(=O)c(-c2nc3cc(N4CCNCC4)ccc3[nH]2)c1 [Compound A45, 5-(2-Methyl-1H-pyrrolo[2,3-b]pyridin-3-yl)-3-(5-piperazin-1-yl-1H-benzimidazol-2-yl)-1H-pyridin-2-one] | 5000 |
|  |  |  | COCc1cccc(-c2c[nH]c(=O)c(-c3nc4cc(N5CCNCC5)ccc4[nH]3)c2)c1 [Compound A19, 5-(3-Methoxymethyl-phenyl)-3-(5-piperazin-1-yl-1H-benzimidazol-2-yl)-1H-pyridin-2-one] | 11000 |
| 320 | 3.7 | 19 | O=c1[nH]cc(-c2ccnc3[nH]ccc23)cc1-c1nc2cc(N3CCC(O)CC3)ccc2[nH]1 [Compound A38, 3-[5-(4-Hydroxy-piperidin-1-yl)-1H-benzimidazol-2-yl]-5-(1H-pyrrolo[2,3-b]-pyridin-4-yl)-1H-pyridin-2-one] |  |
| 200 | 1 | 38 | O=c1[nH]cc(-c2ccnc3[nH]ccc23)cc1-c1nc2cc(N3CCCNCC3)ccc2[nH]1 [Compound A47, 3-(5-[1,4]Diazepan-1-yl-1H-benzimidazol-2-yl)-5-(1H-pyrrolo[2,3-b]pyridin-4-yl)-1H-pyridin-2-one] |  |
|  |  |  | COc1ccc2[nH]c(-c3cc(-c4ccnc5[nH]ccc45)c[nH]c3=O)nc2c1 [Compound A42, 3-(5-Methoxy-1H-benzimidazol-2-yl)-5-(1H-pyrrolo[2,3-b]pyridin-4-yl)-1H-pyridin-2-one] | 7900 |
|  |  |  | O=c1[nH]cc(-c2ccnc3ccccc23)cc1-c1nc2cc(N3CCOCC3)ccc2[nH]1 [Compound A9, 3-(6-Morpholin-4-yl-1H-benzimidazol-2-yl)-5-quinolin-4-yl-1H-pyridin-2-one] | 5700 |
|  |  |  | O=c1[nH]cc(-c2ccnc3ccoc23)cc1-c1nc2cc(N3CCNCC3)ccc2[nH]1 [Compound A18, 5-Furo[3,2-b]pyridin-7-yl-3-(5-piperazin-1-yl-1H-benzimidazol-2-yl)-1H-pyridin-2-one] | 2000 |
